Reference: patent US20150164117A1, “ENCAPSULATION OF FRAGRANCE AND/OR FLAVORS IN SILK FIBROIN BIOMATERIALS” (Tufts University, priority 2012, published 2015)
“And” between values parts separate entries of the source, which are not always exact repeats. Equal entries are not always repeated.

Experiments:
[1] = Size of fragrance-loaded silk microparticles from silk/fragrance emulsions; format: physicochemical; settings: n = 3
Description: To determine the effectiveness of encapsulation of a silk based oil-water-oil system, fragrance oils targeted for encapsulation were added to the silk/polyvinyl alcohol (PVA) aqueous phase at ratios ranging from 1:2 up to 1:8 (v:v). The ratio of silk to fragrance oils was altered prior to sonication and addition of secondary oil phase. […] Formation of fragrance-loaded silk microparticles was more challenging at ˜1% silk concentrations for any of the fragrances tested.
The water phase was created by combining 5:1 (v:v) silk fibroin solution with 3% (w/v) PVA solution. The oil fragrance targeted for encapsulation was manually added to an aqueous phase. The stable primary O/W emulsion was sonicated (20% for 20 seconds) to disperse the oil, reduce the diameter of the oil particles and initiate β-sheet formation. The vegetable oil (sunflower oil) was added as the secondary oil phase at a 10:1 volumetric ratio with respect to the primary emulsion. The O/W/O emulsion was vortexed at high speed for 30 seconds and incubated overnight at room temperature. The microparticles were collected via centrifugation, and excess oil was removed by two successive ethanol rinses. The isolated particles were resuspended in deionized water and stored at room temperature.

[2] = cited from earlier work
[3] = format: physicochemical
Description: To determine fragrance content, thermogravimetric analysis (TGA) was performed on fragrance-loaded sill microparticles. Samples were allowed to air dry for 24 hours prior to analysis. FIGS. 18D-18F depict the results of the TGA for encapsulation of three fragrances, while FIGS. 18A-18C show the individual emulsion components. A small increase in temperature causes the ethanol to volatilize rapidly, while the silk and vegetable oil only begin to degrade at temperatures of 220° C. and 300° C. respectively. The fragrances used are highly volatile and were expected to vaporize well before the silk and oil components. As shown in FIG. 18D-18F, it is difficult to distinguish the fragrance component from the ethanol, they are both released from the microparticles in the same temperature range. To estimate the fragrance content, the change in rate of weight loss during heating from 23° C. to 100° C. was taken as the transition between primarily ethanol evaporation prior to change in rate and fragrances loss subsequently.
To address concerns with release between ethanol and the encapsulated fragrance, a 250 minute incubation at 50° C. was employed during a second set of TGA runs. This incubation was added to ensure that any free surface fragrance and ethanol would vaporize prior to further temperature ramping. After incubation the silk particles contain fragrance only if it was entrapped within the silk.
(§1) Thermogravimetric analysis (TGA) (TA Instruments Q500) was used to measure weight changes in the microparticles. For rapid estimates of microparticle composition the TGA was heated from 23° C. to 500° C. at a rate of ˜20° C./min. To distinguish surface fragrance from encapsulated fragrance, samples were run with a ˜250 minute incubation at 50° C. prior to continued heating. For analysis of fragrance protection the TGA was held isothermal for 30 minutes every 20° C. interval from 70° C. up to 210° C. For each segment weight loss was monitored and attributed to fragrance release from the microparticles.

[4] = TGA with stepwise isothermal segments, fragrance protection by PEO/silk coatings; format: physicochemical; settings: limonene containing microparticles
Description: It has been previously discussed that hydrated barriers can alter the rate of compound release from aqueous silk, hyaluronic acid, gelatin, and alginate constructs (Guziewicz et al., 2011; Elia et al., 2011; Omi et al., 1991; Sriamornsak et al., 2007; Chan et al., 2007; and Li et al., 2006). In combination with the hydrophobic nature of the fragrances, a protective barrier designed to maintain moisture can be desired. The coating scheme is illustrated in FIG. 27A. Each coating comprises a polyethylene oxide (PEO) layer surrounded by a silk fibroin film. Particles were coated with one, three or five coatings and a modified TGA was performed to assess fragrance retention. […] FIGS. 27B-27D depict scanning electron micrographs of these particles.
as §1

[5] = Interfacial tension between silk solution and limonene (pendant drop); format: physicochemical
Description: To elucidate the interaction of silk and the fragrance oils the interfacial tension was measured. Interfacial tension between the two liquids dictates emulsion stability and ultimately microparticle size and distribution (Terjung et al., 2012). Various silk concentrations were assessed along with three silk molecular weight ranges: low, medium and high based on degumming times of ˜60, ˜30 and ˜10 minutes respectively. […] Interfacial tension drops when the molecular weight of the silk protein is decreased. This is in agreement with other studies that show a dependence of surface tension on molecular weight and molecular chain branching (Dettre et al., 1966 and Legrand et al., 1969). […] The highest interfacial tension was 8.16+/−0.57 mN/m for the […] molecular weight silk at a concentration of about 2%. […] Hung et al. discussed that an increase in the concentration of short chain molecules can correspond to a decrease in interfacial tension in an aqueous system (Ly et al. 2004). This is a behavior indicative of emulsifiers, which traditionally serve to stabilize mixtures and generally show better stability with increase in concentration (Djakovic et al., 1987).
Interfacial tension measurements were made using a Ramé-Hart Goniometer (Model 200) running DROPimage Standard analysis software. A silk solution drop of known volume was suspended on the tip of a needle which was submerged in the fragrant oil creating a pendent drop. The DROPimage software used the pendant drop image as well as known density values to calculate interfacial tension at the liquid-liquid interface.

[6] = Limonene release in water from limonene/silk/PVA microparticles (TGA after soaking); format: physicochemical
Description: FIGS. 22A-22B are data graphs showing retention/release of fragrance from the fragrance-encapsulated silk microparticles under a specified condition. The microparticles were then diluted in water and passed through 120 μm filter. The isolated microparticles were then incubated in water to determine fragrance release over time. FIG. 22A is a data graph of TGA (performed with ˜250 min 50° C. incubation, followed by ramping to 400° C. at 5° C./min) showing weight loss of fragrance-encapsulated silk microparticles over a period of time when subjected to various temperatures. […] These silk microparticles show retention across 14 days without any additional coatings. FIG. 22B is a bar graph showing percents of encapsulated limonene release in water from O/W/O PVA silk microparticles without coatings. Using the “no release” as the reference point for fragrance content, there was about 2-3% difference in mass for fragrance-encapsulated silk microparticles soaked in water. Mass loss corresponds to fragrance loss during soaking in an aqueous environment, with an increase of fragrance release after longer exposure to the aqueous environment.

[7] = Dissolution of untreated loaded silk films and release of load in aqueous medium; format: physicochemical
Description: Rapid dissolution of films loaded with a dye and release of the dye from the films occur when the films are immersed in ˜37° C. buffer (FIG. 10). Dissolvable silk films loaded with an odor-releasing substance and/or flavoring substance (e.g., ˜0.5, 0.25 or 0.125 mg of adenosine per 0.2 mm^2 film) released the majority of the drug load (approx. 80%) within 15 minutes of exposure to 37° C. phosphate buffered saline (PBS) (Data not shown).

[8] = silk concentration ~3%, fragrance:silk ~1:2
[9] = silk concentration ~5%, fragrance:silk ~1:2

CCCC(C)C(=O)OCC (centres unmarked) [Applinate]
Microparticle size ([1]; silk concentration 3%, fragrance:silk ~1:4): 9.53 ± 2.47 μm | Microparticle size ([1]; silk concentration 3%, fragrance:silk ~1:8): 9.22 ± 2.79 μm | Microparticle size ([1]; silk concentration 5%, fragrance:silk ~1:4): 9.64 ± 3.11 μm | Microparticle size ([1]; silk concentration 5%, fragrance:silk ~1:8): 9.61 ± 2.40 μm | Microparticle size [1, 8]: 8.49 ± 2.53 μm | Microparticle size ([1]; silk concentration ~3%, fragrance:silk ~1:2, listed as applinate): 8.49+/−2.53 μm and 8.49 ± 2.53 μm | Microparticle size [1, 9]: 8.11 ± 1.96 μm | Microparticle size ([1]; silk concentration ~5%, fragrance:silk ~1:2, listed as applinate): 8.11+/−1.76 μm and 8.11 ± 1.96 μm | Log P [2]: 2.76

C/C=C/C(=O)C1C(C)C=CCC1(C)C (centres unmarked) [Delta-Damascone]
Microparticle size [1, 8]: 7.60 ± 2.71 μm | Microparticle size [1, 9]: 7.84 ± 1.49 μm | Log P [2]: 3.91

C=CC(C)CCCC(C)(C)O (centres unmarked) [Dihydromyrcenol]
Microparticle size [1, 9]: 7.71 ± 1.82 μm | Log P [2]: 3.25

C=C(C)C1CC=C(C)CC1 (centres unmarked) [Limonene]
Microparticle size [1, 8]: 9.57 ± 2.70 μm | Microparticle size ([1]; silk concentration ~3%, fragrance:silk ~1:2, listed as limonene): 9.57+/−2.70 μm | Microparticle size [1, 9]: 12.40 ± 4.76 μm | Microparticle size ([1]; silk concentration ~5%, fragrance:silk ~1:2, listed as limonene): 12.40+/−4.96 μm | Loss of limonene during incubation period ([3]; O/W/O microparticles, TGA with 250 minute incubation at 50° C.): majority of the limonene is lost | Limonene fraction of microparticles ([3]; preformed PVA/silk microparticles soaked about 1 or about 24 hours in limonene oil, TGA): 85-90% | Weight Loss (%), Total Loss ([4]; 1 PEO/silk coating, 70-210° C. segments): 8.2% | Weight Loss (%) ([4]; 1 PEO/silk coating, isotherm segment 70° C.): 0.179% | Weight Loss (%) ([4]; 1 PEO/silk coating, isotherm segment 90° C.): 1.024% | Weight Loss (%) ([4]; 1 PEO/silk coating, isotherm segment 110° C.): 0.154% | Weight Loss (%) ([4]; 1 PEO/silk coating, isotherm segment 130° C.): 0.342% | Weight Loss (%) ([4]; 1 PEO/silk coating, isotherm segment 150° C.): 0.323% | Weight Loss (%) ([4]; 1 PEO/silk coating, isotherm segment 170° C.): 0.367% | Weight Loss (%) ([4]; 1 PEO/silk coating, isotherm segment 190° C.): 2.465% | Weight Loss (%) ([4]; 1 PEO/silk coating, isotherm segment 210° C.): 3.3201% | Weight Loss (%), Total Loss ([4]; 3 PEO/silk coatings, 70-210° C. segments): 1.2% | Weight Loss (%) ([4]; 3 PEO/silk coatings, isotherm segment 70° C.): 0.035% | Weight Loss (%) ([4]; 3 PEO/silk coatings, isotherm segment 90° C.): −0.019% | Weight Loss (%) ([4]; 3 PEO/silk coatings, isotherm segment 110° C.): 0.091% | Weight Loss (%) ([4]; 3 PEO/silk coatings, isotherm segment 130° C.): −0.102% | Weight Loss (%) ([4]; 3 PEO/silk coatings, isotherm segment 150° C.): 0.056% | Weight Loss (%) ([4]; 3 PEO/silk coatings, isotherm segment 170° C.): 0.288% | Weight Loss (%) ([4]; 3 PEO/silk coatings, isotherm segment 190° C.): 0.328% | Weight Loss (%) ([4]; 3 PEO/silk coatings, isotherm segment 210° C.): 0.478% | Weight Loss (%), Total Loss (fragrance retention) ([4]; 5 PEO/silk coatings, 70-210° C. segments): 16.8% | Weight Loss (%) ([4]; 5 PEO/silk coatings, isotherm segment 70° C.): 1.535% | Weight Loss (%) ([4]; 5 PEO/silk coatings, isotherm segment 90° C.): 3.531% | Weight Loss (%) ([4]; 5 PEO/silk coatings, isotherm segment 110° C.): 3.579% | Weight Loss (%) ([4]; 5 PEO/silk coatings, isotherm segment 130° C.): 2.391% | Weight Loss (%) ([4]; 5 PEO/silk coatings, isotherm segment 150° C.): 1.549% | Weight Loss (%) ([4]; 5 PEO/silk coatings, isotherm segment 170° C.): 1.314% | Weight Loss (%) ([4]; 5 PEO/silk coatings, isotherm segment 190° C.): 1.278% | Weight Loss (%) ([4]; 5 PEO/silk coatings, isotherm segment 210° C.): 1.615% | Interfacial tension ([5]; between silk and limonene, lowest molecular weight and highest silk concentrations): 4.59+/−0.32 mN/m | Interfacial tension ([5]; between silk and limonene, lowest molecular weight silk at about 2% (highest value found)): 8.16+/−0.57 mN/m | Interfacial tension ([5]; limonene / 6% silk at 3.1 uM NaCl): 1.82+/−0.39 mN/m | Interfacial tension ([5]; limonene / unaltered 6% silk (30 minute degummed), n=3): 4.78+/−0.28 mN/m | Difference in mass versus no release (fragrance loss on soaking in water) ([6]; uncoated limonene/silk/PVA O/W/O microparticles soaked in water, TGA): 2-3% | Retention in water without additional coatings ([6]; uncoated limonene/silk/PVA microparticles incubated in water): 14 days

Nc1ncnc2c1ncn2[C@@H]1O[C@H](CO)[C@@H](O)[C@H]1O [adenosine]
Drug load released ([7]; dissolvable silk films, ~0.5, 0.25 or 0.125 mg per 0.2 mm^2 film, within 15 minutes in 37° C. PBS, data not shown): approx. 80%

O=C1/C(=C2\Nc3ccc(S(=O)(=O)[O-])cc3C2=O)Nc2ccc(S(=O)(=O)[O-])cc21.[Na+].[Na+] [indigo carmine]
Time to full dissolution ([7]; untreated dye-loaded silk film immersed in ~37° C. water): about 30 minutes

vegetable oil
Temperature at which degradation begins [3]: 300 °C
